Columns and labels:
[1] = BEACON post-hoc review of EAC case packets for heart failure events within first four weeks; type: in vivo, human; conditions: n = 38
Procedure: The first scheduled post-baseline assessment in BEACON was at Week 4. Since many of the heart failure events occurred prior to Week 4, the clinical database provides limited information to characterize these patients. Post-hoc review of the EAC case packets for heart failure cases that occurred prior to Week 4 was performed to assess clinical, vitals, laboratory, and imaging data collected at the time of the first heart failure event (Tables 13 and 14).
Baseline central laboratory values from the clinical database were compared to local laboratory values obtained on admission for heart failure that were included in the EAC packets.

[2] = Thorough QT Study in healthy volunteers; type: in vivo, human; conditions: 6 days
Procedure: Intensive blood pressure monitoring was employed in a separate Thorough QT Study, which was conducted in healthy volunteers.

[3] = Open label dose-ranging study 402-C-0902 in type 2 diabetic patients with stage 3b-4 CKD; type: in vivo, human; parameters: ΔSBP, change from baseline / ΔDBP, change from baseline: unit not given beside the values
clinical = conditions: human, in vivo, po
[4] = 2.5 mg once daily 85 days, CKD Stage 3b/4, N = 14
[5] = 2.5 mg once daily 85 days, CKD Stage 3b, N = 10
[6] = 2.5 mg once daily 85 days, CKD Stage 4, N = 4
[7] = 5 mg once daily 85 days, CKD Stage 3b/4, N = 24
[8] = 5 mg once daily 85 days, CKD Stage 3b, N = 19
[9] = 5 mg once daily 85 days, CKD Stage 4, N = 5
[10] = 10 mg once daily 85 days, CKD Stage 3b/4, N = 24
[11] = 10 mg once daily 85 days, CKD Stage 3b, N = 20
[12] = 10 mg once daily 85 days, CKD Stage 4, N = 4
[13] = 15 mg once daily 85 days, CKD Stage 3b/4, N = 48
[14] = 15 mg once daily 85 days, CKD Stage 3b, N = 26
[15] = 15 mg once daily 85 days, CKD Stage 4, N = 22
[16] = 30 mg once daily 85 days, CKD Stage 3b/4, N = 12
[17] = 30 mg once daily 85 days, CKD Stage 3b, N = 3
[18] = 30 mg once daily 85 days, CKD Stage 4, N = 9

COC(=O)[C@]12CCC(C)(C)C[C@H]1[C@H]1C(=O)C=C3[C@@]4(C)C=C(C#N)C(=O)C(C)(C)[C@@H]4CC[C@@]3(C)[C@]1(C)CC2 [Bardoxolone methyl, methyl-2-cyano-3,12-dioxooleana-1,9-dien-28-oic acid]
Serum Creatinine Δ (HF vs baseline), mean [1]: -0.1 mg/dL
Change in blood pressure ([2]; 20 mg or 80 mg once daily): did not differ from changes observed in placebo-treated patients
QTcF, placebo-corrected changes (ΔΔQTcF) ([2]; 20 or 80 mg): did not increase QTcF
ΔDBP, change from baseline [3, 4]: 0.2 ± 1.8
ΔSBP, change from baseline [3, 4]: 0.1 ± 4.2
ΔDBP, change from baseline [3, 5]: 1 ± 2
ΔSBP, change from baseline [3, 5]: 0 ± 4.4
ΔDBP, change from baseline [3, 6]: −1.5 ± 3.9
ΔSBP, change from baseline [3, 6]: 0.3 ± 11
ΔDBP, change from baseline [3, 7]: −1.4 ± 1.5
ΔSBP, change from baseline [3, 7]: −1.5 ± 2.3
ΔDBP, change from baseline [3, 8]: −1.3 ± 1.4
ΔSBP, change from baseline [3, 8]: −2.1 ± 2 ^
ΔDBP, change from baseline [3, 9]: −1.4 ± 5.6
ΔSBP, change from baseline [3, 9]: 0.5 ± 9.1
ΔDBP, change from baseline [3, 10]: 0.3 ± 1.3
ΔSBP, change from baseline [3, 10]: −2.4 ± 3.1
ΔDBP, change from baseline [3, 11]: −0.3 ± 1.3
ΔSBP, change from baseline [3, 11]: −4.2 ± 3.4
ΔDBP, change from baseline [3, 12]: 3.6 ± 4.5
ΔSBP, change from baseline [3, 12]: 6.1 ± 6.7
ΔDBP, change from baseline [3, 13]: −1 ± 1.2
ΔSBP, change from baseline [3, 13]: 1.1 ± 2.3
ΔDBP, change from baseline [3, 14]: −1.3 ± 1.5
ΔSBP, change from baseline [3, 14]: −2.2 ± 3.3
ΔDBP, change from baseline [3, 15]: −0.6 ± 1.9
ΔSBP, change from baseline [3, 15]: 5 ± 2.8
ΔDBP, change from baseline [3, 16]: 3.2 ± 2.2
ΔSBP, change from baseline [3, 16]: 7.2 ± 6.2
ΔDBP, change from baseline [3, 17]: −1.8 ± 3.9
ΔSBP, change from baseline [3, 17]: −0.4 ± 13.8
ΔDBP, change from baseline [3, 18]: 4.7 ± 2.5
ΔSBP, change from baseline [3, 18]: 9.7 ± 7.3
Blood pressure changes ([3]; 2.5 to 30 mg, 85 consecutive days, amorphous dispersion formulation): no dose-related trend in blood pressure changes or change at any individual dose level was noted
AE, SOC Card: Cardiac failure congestive, patients n (%) ([3]; SDD 2.5 mg QD 85 days, N = 14): 0
AE, SOC Card: Oedema peripheral, patients n (%) ([3]; SDD 2.5 mg QD 85 days, N = 14): 0
AE, SOC Genrl: Oedema peripheral, patients n (%) ([3]; SDD 2.5 mg QD 85 days, N = 14): 0
AE, SOC Metab: Oedema peripheral, patients n (%) ([3]; SDD 2.5 mg QD 85 days, N = 14): 0
AE, SOC Resp: Dyspnoea exertional, patients n (%) ([3]; SDD 2.5 mg QD 85 days, N = 14): 1 (7)
AE, SOC Resp: Dyspnoea, patients n (%) ([3]; SDD 2.5 mg QD 85 days, N = 14): 0
SAE, SOC Card: Cardiac failure congestive, patients n (%) ([3]; SDD 2.5 mg QD 85 days, N = 14): 0
AE, SOC Card: Cardiac failure congestive, patients n (%) ([3]; SDD 5 mg QD 85 days, N = 25): 0
AE, SOC Card: Oedema peripheral, patients n (%) ([3]; SDD 5 mg QD 85 days, N = 25): 0
AE, SOC Genrl: Oedema peripheral, patients n (%) ([3]; SDD 5 mg QD 85 days, N = 25): 3 (12)
AE, SOC Metab: Oedema peripheral, patients n (%) ([3]; SDD 5 mg QD 85 days, N = 25): 0
AE, SOC Resp: Dyspnoea exertional, patients n (%) ([3]; SDD 5 mg QD 85 days, N = 25): 0
AE, SOC Resp: Dyspnoea, patients n (%) ([3]; SDD 5 mg QD 85 days, N = 25): 0
SAE, SOC Card: Cardiac failure congestive, patients n (%) ([3]; SDD 5 mg QD 85 days, N = 25): 0
AE, SOC Card: Cardiac failure congestive, patients n (%) ([3]; SDD 10 mg QD 85 days, N = 28): 1 (4)
AE, SOC Card: Oedema peripheral, patients n (%) ([3]; SDD 10 mg QD 85 days, N = 28): 1 (4)
AE, SOC Genrl: Oedema peripheral, patients n (%) ([3]; SDD 10 mg QD 85 days, N = 28): 5 (18)
AE, SOC Metab: Oedema peripheral, patients n (%) ([3]; SDD 10 mg QD 85 days, N = 28): 0
AE, SOC Resp: Dyspnoea exertional, patients n (%) ([3]; SDD 10 mg QD 85 days, N = 28): 0
AE, SOC Resp: Dyspnoea, patients n (%) ([3]; SDD 10 mg QD 85 days, N = 28): 0
SAE, SOC Card: Cardiac failure congestive, patients n (%) ([3]; SDD 10 mg QD 85 days, N = 28): 1 (4)
AE, SOC Card: Cardiac failure congestive, patients n (%) ([3]; SDD 15 mg QD 85 days, N = 50): 0
AE, SOC Card: Oedema peripheral, patients n (%) ([3]; SDD 15 mg QD 85 days, N = 50): 1 (2)
AE, SOC Genrl: Oedema peripheral, patients n (%) ([3]; SDD 15 mg QD 85 days, N = 50): 3 (6)
AE, SOC Metab: Oedema peripheral, patients n (%) ([3]; SDD 15 mg QD 85 days, N = 50): 0
AE, SOC Resp: Dyspnoea exertional, patients n (%) ([3]; SDD 15 mg QD 85 days, N = 50): 0
AE, SOC Resp: Dyspnoea, patients n (%) ([3]; SDD 15 mg QD 85 days, N = 50): 0
SAE, SOC Card: Cardiac failure congestive, patients n (%) ([3]; SDD 15 mg QD 85 days, N = 50): 0
AE, SOC Card: Cardiac failure congestive, patients n (%) ([3]; SDD 30 mg QD 85 days, N = 14): 1 (7)
AE, SOC Card: Oedema peripheral, patients n (%) ([3]; SDD 30 mg QD 85 days, N = 14): 0
AE, SOC Genrl: Oedema peripheral, patients n (%) ([3]; SDD 30 mg QD 85 days, N = 14): 3 (21)
AE, SOC Metab: Oedema peripheral, patients n (%) ([3]; SDD 30 mg QD 85 days, N = 14): 1 (7)
AE, SOC Resp: Dyspnoea exertional, patients n (%) ([3]; SDD 30 mg QD 85 days, N = 14): 0
AE, SOC Resp: Dyspnoea, patients n (%) ([3]; SDD 30 mg QD 85 days, N = 14): 1 (7)
SAE, SOC Card: Cardiac failure congestive, patients n (%) ([3]; SDD 30 mg QD 85 days, N = 14): 1 (7)
half-life (clinical): 48 to 60 h

Source: patent US20240293351A1, “METHODS OF ADMINISTERING SYNTHETIC TRITERPENOIDS” (REATA PHARMACEUTICALS HOLDINGS, LLC, priority 2020, published 2024)
